Experimental data reported in PMC12081876, “Identification of PTGR2 inhibitors as a new therapeutic strategy for diabetes and obesity” (EMBO Molecular Medicine, 2025).
Values joined by “and” are separate entries in the source; they are usually repeats but may differ in a detail not shown here. Equal values may be shown once.

How the values were obtained:
mPPARγ C313A = target: T1, mPPARγ C313A (Mus musculus, UniProt P37238, C313A); assay: PPRE reporter assay in HEK293T cells, C313A mutant mPPARγ; assay type: cell-based, murine; set-up: key to PPRE reporter activity, Fig 1M replicates: luciferase activity normalized to TK reporter signal; conditions: for PPRE reporter activity, Fig 1M replicates: PPARg C313A
T1 construct: host or cells: HEK293T
T1 sequence (P37238 1-505 C313A): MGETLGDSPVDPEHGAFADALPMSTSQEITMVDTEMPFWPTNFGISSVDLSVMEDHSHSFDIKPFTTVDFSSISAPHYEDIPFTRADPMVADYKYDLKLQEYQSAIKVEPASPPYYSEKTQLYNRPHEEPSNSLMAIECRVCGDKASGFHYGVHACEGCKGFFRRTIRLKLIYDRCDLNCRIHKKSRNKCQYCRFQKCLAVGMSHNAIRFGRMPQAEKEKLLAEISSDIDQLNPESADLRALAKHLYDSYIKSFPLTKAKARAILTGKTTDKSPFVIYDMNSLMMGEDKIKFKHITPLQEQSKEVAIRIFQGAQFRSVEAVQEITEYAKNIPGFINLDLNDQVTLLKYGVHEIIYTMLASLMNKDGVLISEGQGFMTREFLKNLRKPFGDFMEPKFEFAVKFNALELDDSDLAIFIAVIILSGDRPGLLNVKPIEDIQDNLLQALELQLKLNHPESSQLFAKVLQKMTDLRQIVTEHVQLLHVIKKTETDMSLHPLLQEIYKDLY
Protocol: For PPRE reporter assay, HEK293T cells were seeded in 24-well plates at 1 × 10^5 cells/well. […] The luciferase activity was measured by Luc-Pair™ Duo-Luciferase HS Assay Kit (cat. no. LF600, Promega, USA) and normalized to the TK reporter signal.

[1] = test system: PPARγ-null 3T3-L1 clones rescued with mutant mPPARγ (C313A); assay: Insulin-stimulated glucose uptake in PPARγ-null 3T3-L1 clones rescued with mutant mPPARγ (C313A); assay type: cell-based, mouse; conditions: for insulin-stimulated glucose uptake, Fig 1P right panel replicates: rescued with mPPARγ C313A
Protocol: Gene editing was performed in 3T3-L1 preadipocytes using the clustered regularly interspaced short palindromic repeats (CRISPR)/Cas9 system. Two single-guide RNAs (sgRNA) (Appendix Table S5) targeting exon 6 of mouse Pparγ were designed using a web-based design tool (http://crispr.mit.edu/). These oligonucleotides were cloned into the pSurrogate reporter and pAll-Cas9.Ppuro vector obtained from Academia Sinica, Taiwan. The pSurrogate reporter contains an EGFP and an out-of-frame mCherry downstream of the sgRNA; the pAll-Cas9.Ppuro vector expresses Cas9 nuclease and sgRNA. Once a double-strand breaking at the target site in pSurrogate reporter plasmid was created by Cas9, insertions and deletions (indels) could be introduced at the cleaved site. The indels cause frameshifts and result in the expression of the mCherry gene. 3T3-L1 preadipocytes were co-transfected with pSurrogate reporter and pAll-Cas9.Ppuro vectors at 80-90% confluency using PolyJet™ transfection reagent (cat. no. SL100688, SignaGen Laboratories, USA). Two days after transfection, EGFP/mCherry double-positive cells were enriched by fluorescent-activated cell sorting. Single cells were isolated and expanded. The genomic DNA was amplified by PCR and sequenced to confirm the knockout cell lines. The primer sequences are shown in Appendix Table S5.
The mPPARγ C313A DNA sequence was amplified from pCMV6-Pparg C313A and subcloned into the pLVX-IRES-Neo vector with XhoI/NotI restriction sites. The lentiviral expression plasmids, pMD.G, and pCMVΔR8.91 (RNAi Core, Academia Sinica, Taiwan), were co-transfected into HEK293T cells. […] HSP70 was probed with an anti-HSP70 antibody (cat. no. ab45133, Abcam) as a loading control.
Differentiated 3T3-L1 cells were starved with serum-free DMEM containing 0.2% BSA (cat. no. A9647, Sigma-Aldrich). […] Uptake of 2DG was terminated by rapidly removing medium and washing with ice-cold PBS three times. Cells were lysed with 0.1% SDS, and the radioactivity was measured using a liquid scintillation counter. Insulin-mediated glucose uptake was calculated by subtracting insulin-treated glucose uptake with basal glucose uptake.

3T3-L1 adipocytes = assay: Intracellular 15-keto-PGE2 content of 3T3-L1 cells (LC-MS/MS); assay type: cell-based, mouse
Protocol: The lysate was centrifuged at 300 × g for 5 min to remove cellular debris. The supernatant was transferred to a new tube. The C18 SPE cartridge was sequentially activated with 2 mL methanol and 2 mL ddH2O. The lower-layer sample was transferred to the C18 SPE cartridge. Once the lysate passed the cartridge, the SPE cartridge was washed with 2 mL 15% methanol and 5 mL ddH2O. The sample was then eluted with 5 mL HPLC-degree methanol and aliquoted into new 2-mL tubes. The elute was air-dried using a SpeedVac system and stored at −80 °C. The dried samples were reconstituted with 60 μL methanol before analysis.

[2] = test system: HFHSD-fed obese C57BL6/J mice; assay: Tissue weights (fat pads, liver, BAT); assay type: in vivo, mouse; set-up: Inguinal fat weight (Figure 5N): unit not given here
[3] = individual animals, in g (unit assumed)
[4] = Figure 2J, individual mice, listed as 15kPGE2, in g (unit assumed)

CCCCCC(=O)CC[C@H]1[C@H](O)CC(=O)[C@@H]1C/C=C\CCCC(=O)O [13,14-dihydro-15-keto-PGE2]
PPRE reporter activity, Fig 1M replicates (mPPARγ C313A; 1314dh-15kPGE2 5uM): 1.0835 and 0.6291 and 0.9127
PPRE reporter activity, Fig 1M replicates (mPPARγ C313A; 1314dh-15kPGE2 10uM): 0.8254 and 0.8511 and 0.9733
insulin-stimulated glucose uptake, Fig 1P right panel replicates ([1]; 1314-dihydro-15kPGE2 5): 1.243 and 2.598 and 0.703

Cc1[nH]c2nc(C(C)N3CCN(c4ccccc4)CC3)nn2c(=O)c1Cc1ccc(F)cc1 (stereo not shown) [BPRPT0245]
intracellular 15-keto-PGE2 concentrations (3T3-L1 adipocytes; differentiated 3T3-L1 adipocytes treated with BPRPT0245): increased intracellular 15-keto-PGE2 concentrations in a dose-dependent manner
white fat mass and liver mass ([2]; 100 mg/kg/day oral, HFHSD-fed mice, vs vehicle): significantly reduced
Inguinal fat weight (Figure 5N) ([2]; individual animals): 3.1135 and 2.4997 and 3.7598 and 1.225 and 2.118 and 3.7874 and 2.0547 and 1.3489 and 2.0692 and 1.6337
BAT weight (Figure 5N) [2, 3]: 0.1698 and 0.1291 and 0.2802 and 0.1132 and 0.1765 and 0.2813 and 0.0604 and 0.0923 and 0.1293
Liver weight (Figure 5N) [2, 3]: 1.4298 and 1.1221 and 1.8053 and 1.0426 and 1.3688 and 2.9793 and 1.3504 and 1.1836 and 1.2693 and 1.0805
Mesenteric fat weight (Figure 5N) [2, 3]: 1.0785 and 0.4119 and 1.0515 and 0.3617 and 0.4577 and 1.3111 and 0.5735 and 0.369 and 0.413 and 0.3561
Perigonadal fat weight (Figure 5N) [2, 3]: 2.771 and 2.393 and 3.067 and 1.288 and 2.096 and 2.817 and 2.396 and 1.58 and 2.043 and 2.048

CCCCCC(=O)/C=C/[C@H]1[C@H](O)CC(=O)[C@@H]1C/C=C\CCCC(=O)O [15-keto-PGE2, 15-keto-prostaglandin E2]
increase of intracellular 15-keto-PGE2 levels (3T3-L1 adipocytes; exogenously added 15-keto-PGE2 10–20 μM, 3T3-L1 adipocytes): 1.25 to 1.78 fold
PPRE reporter activity, Fig 1M replicates (mPPARγ C313A; 15kPGE2 1uM): 1.1721 and 1.0341 and 1.1068
PPRE reporter activity, Fig 1M replicates (mPPARγ C313A; 15kPGE2 5uM): 0.9678 and 0.853 and 0.9258
PPRE reporter activity, Fig 1M replicates (mPPARγ C313A; 15kPGE2 10uM): 0.6267 and 0.6796 and 0.8917
PPRE reporter activity, mutant mPPARγ (C313A) (mPPARγ C313A; HEK293T): abolished
insulin-stimulated glucose uptake, Fig 1P right panel replicates ([1]; 15kPGE2 1): 0.9792 and 1.801 and 3.6878 and 1.466
insulin-stimulated glucose uptake, Fig 1P right panel replicates ([1]; 15kPGE2 5): 0.4664 and 1.615 and 2.026 and 0.6338
insulin-stimulated glucose uptake, Fig 1P right panel replicates ([1]; 15kPGE2 10): 0.2762 and 1.684 and 2.97 and 1.874
insulin-stimulated glucose uptake, PPARγ-null clone rescued with mutant mPPARγ (C313A) ([1]; clone #1296): not when rescued with mutant mPPARγ (C313A)
White fat mass ([2]; 40 mg/kg/day ip, 3 weeks, HFHSD-fed mice, vs vehicle): reduced
BAT weight [2, 4]: 0.1049 and 0.0893 and 0.0681 and 0.1024 and 0.0901 and 0.0904 and 0.0815 and 0.0934 and 0.1303 and 0.0871 and 0.1289 and 0.0981 and 0.1279
gonadal fat weight [2, 4]: 1.0948 and 0.4418 and 0.5418 and 0.586 and 0.6631 and 0.6417 and 0.7873 and 0.8763 and 0.4217 and 0.3751 and 0.7101 and 0.437 and 1.2399 and 1.5271
inguinal fa (inguinal fat weight) [2, 4]: 0.5361 and 0.3262 and 0.2899 and 0.5695 and 0.44 and 0.4775 and 0.4155 and 0.4527 and 0.3306 and 0.2941 and 0.47 and 0.5739 and 0.6454 and 0.6994
liver weight [2, 4]: 1.4646 and 1.5001 and 1.364 and 1.198 and 1.291 and 1.4569 and 1.3602 and 1.5387 and 1.535 and 1.2853 and 1.4911 and 1.7319 and 1.4367 and 1.4078
mesneteric fat weight [2, 4]: 0.4239 and 0.1584 and 0.1617 and 0.203 and 0.2549 and 0.1777 and 0.3522 and 0.3152 and 0.191 and 0.1812 and 0.1041 and 0.3498 and 0.3664 and 0.5006
